The target in one assay is T1, hMC5-R (Homo sapiens, UniProt P33032).
T1 construct: expressed in transfected cells; host or cells: HEK-293
Put plainly: Competitive inhibition binding assay using [I125]-NDP-α-MSH, hMC5-R. The note with it: radioligand [I125]-NDP-α-MSH, HEK-293 membranes; read-out: Ki (NDP-α-MSH) MC5-R. On the procedure: (§1) The assay tube also contained a chosen concentration of the test peptide of this invention, typically a 1 μM concentration, for determining its efficacy in inhibiting the binding of [I^125]NDP-α-MSH to the receptor.
(§2) The assay mixture was incubated for 60 minutes at 37° C., then filtered and the membranes washed three times with ice cold phosphate buffered saline. The filter was dried and counted in a gamma counter for remaining radioactivity bound to the membranes. 100% specific binding was defined as the difference in radioactivity (cpm) bound to cell membranes in the absence and presence of 1 μM NDP-α-MSH. […] Each assay was conducted in triplicate. The Ki (nM) of certain peptides of the invention were determined using similar assay protocols and testing peptides over a wider dose range.

In assay [1] the target is T2, MC4-R (Homo sapiens, UniProt P32245).
T2 construct: expressed in transfected cells; host or cells: HEK-293
T2 sequence (P32245 whole entry): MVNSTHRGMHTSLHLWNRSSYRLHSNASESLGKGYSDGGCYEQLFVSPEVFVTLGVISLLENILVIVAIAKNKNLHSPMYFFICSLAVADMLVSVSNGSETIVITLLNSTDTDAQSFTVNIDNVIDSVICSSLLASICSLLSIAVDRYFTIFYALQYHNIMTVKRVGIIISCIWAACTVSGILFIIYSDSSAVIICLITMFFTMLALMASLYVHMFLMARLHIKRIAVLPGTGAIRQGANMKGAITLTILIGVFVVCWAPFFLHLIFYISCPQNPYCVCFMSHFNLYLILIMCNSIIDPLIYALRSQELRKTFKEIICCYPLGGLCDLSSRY
Kind of assay: Competitive inhibition binding assay using [I125]-NDP-α-MSH, hMC4-R. The note with it: radioligand [I125]-NDP-α-MSH, HEK-293 membranes; read-out: Ki (NDP-α-MSH) MC4-R. As to the method: as §1, §2

For another assay, the target named is T3, MC3-R (Homo sapiens, UniProt P41968).
T3 construct: expressed in transfected cells; host or cells: HEK-293
T3 sequence (P41968 whole entry): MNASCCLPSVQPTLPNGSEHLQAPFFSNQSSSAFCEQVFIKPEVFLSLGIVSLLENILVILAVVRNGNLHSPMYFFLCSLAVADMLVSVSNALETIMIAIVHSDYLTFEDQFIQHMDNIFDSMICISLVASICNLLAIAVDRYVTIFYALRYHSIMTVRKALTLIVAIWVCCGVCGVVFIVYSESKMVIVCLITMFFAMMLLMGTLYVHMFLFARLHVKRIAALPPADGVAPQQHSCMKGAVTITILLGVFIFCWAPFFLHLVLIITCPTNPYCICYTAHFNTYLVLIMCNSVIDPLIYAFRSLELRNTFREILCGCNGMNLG
Put plainly: Competitive inhibition binding assay using [I125]-NDP-α-MSH, hMC3-R. The note with it: radioligand [I125]-NDP-α-MSH, HEK-293 membranes; read-out: Ki (NDP-α-MSH) MC3-R. On the procedure:
as §1, §2

The target in assay [2] is T2, MC4-R. Put plainly: Competitive inhibition Ki (AgRP), MC4-R. The note with it: AgRP as competing ligand. In kind it is binding.
The next assay relates to male Sprague-Dawley rats. Put plainly: Penile erection induction in male rats. The class given is in vivo, rat. The note with it: 1000 μg/kg IV, groups of 6 rats, one hour observation. As to the method: The ability of peptides to induce penile erection (PE) in male rats was evaluated with selected peptides. Male Sprague-Dawley rats weighing 200-250 g were kept on a 12 hour on/off light cycle with food and water ad libitum. All behavioral studies were performed between 10 a.m. and 5 p.m. Groups of 4-8 rats were administered peptides at a variety of doses via an intravenous (IV) route, and may alternatively be administered peptide by an intracerebroventricular (ICV) route. Immediately after treatment, rats were placed into individual polystyrene cages (27 cm long, 16 cm wide, and 25 cm high) for behavioral observation. […] For rats administered peptide by an ICV routes, rats are observed for two hours.
Selected peptides were tested as in Example 5. Peptide was administered by IV routes, and used at dose levels ranging from 1 μg/kg to 1000 μg/kg.

Another assay concerns the target T4, hMC4-R (HEK-293 cells) (Homo sapiens, UniProt P32245).
T4 construct: expressed in transfected cells; host or cells: HEK-293
Kind of assay: cAMP functional assay for agonist/antagonist status, MC4-R. In kind it is cell-based. The following applies: for pEC50: cAMP accumulation; for agonist/antagonist status as to MC4-R: cAMP assay; for efficacy relative to NDP-α-MSH, MC4-R: cAMP response ratio to NDP-α-MSH. As to the method: (§3) Functional evaluation of peptides at melanocortin receptors was performed by measuring the accumulation of intracellular cAMP in HEK-293 cells expressing hMC3-R, hMC4-R or hMC5-R, and in B-16 mouse melanoma cells expressing MC1-R. Cells suspended in Earle's Balanced Salt Solution containing 10 mM HEPES (pH 7.5), 5 mM MgCl2, 1 mM glutamine, 0.5% albumin and 0.3 mM 3-isobutyl-1-methyl-xanthine, a phosphodiesterase inhibitor, were plated in 96 well plates at a density of 0.5×10^5 cells per well. Cells were incubated with the test peptides in the presence or absence of NDP-α-MSH for 1 hour at 37° C. cAMP levels in the cell lysates were measured using an EIA kit (Amersham). Data analysis and EC50 values were determined using nonlinear regression analysis with Prism Graph-Pad software.
(§4) The agonist/antagonist status with respect to MC1-R, MC4-R and MC5-R of certain peptides of the invention was determined. Antagonistic activity was determined by measuring the inhibition of α-MSH-induced or NDP-α-MSH-induced cAMP levels following exposure to the peptides as in the preceding descriptions.
Evaluation of the molecules to elicit a functional response in HEK-293 cells expressing hMC4-R for agonistic activity was done by measuring the accumulation of intracellular cAMP following treatment. Confluent HEK-293 cells over-expressing MC4-R receptors were detached by enzyme free cell suspension buffer. Cells were suspended in Earle's Balanced Salt Solution containing 10 mM HEPES (pH 7.5), 1 mM MgCl2, 1 mM glutamine, 0.5% albumin and 0.3 mM 3-isobutyl-1-methyl-[…]. The cells were plated in a 96 well plate at a density of 0.5×10^5 cells per well and pre-incubated for 60 minutes. The cells were then challenged with the test peptides dissolved in dimethylsulfoxide (DMSO) at a concentration range of 0.05-5000 nM in a total assay volume of 200 μL for 1 hour at 37° C. The concentration of DMSO was held at 1% in the assay mixture. NDP-α-MSH was used as the reference agonist. At the end of the incubation period the cells were disrupted by the addition of 50 μL lysis buffer from the cAMP EIA kit (Amersham). Complete rupture of the cells was ensured by pipetting the cells. cAMP levels in the cell lysates were measured after appropriate dilution using the EIA kit (Amersham) method. Data analysis and EC50 values were determined by using nonlinear regression analysis with the Prism Graph-Pad software.

A further assay deals with T5, hMC3-R (HEK-293 cells) (Homo sapiens, UniProt P41968).
T5 construct: expressed in transfected cells; host or cells: HEK-293
T5 sequence (P41968 whole entry): as above
Put plainly: cAMP functional assay for agonist/antagonist status, MC3-R. In kind it is cell-based. The following applies: for pEC50: cAMP accumulation; for agonist/antagonist status as to MC3-R: cAMP assay; for efficacy relative to NDP-α-MSH, MC3-R: cAMP response ratio to NDP-α-MSH. On the procedure: as §3, §4

Assay [3] deals with T6, MC1-R (B-16 mouse melanoma cells) (Mus musculus, UniProt Q01727).
T6 construct: B-16 mouse melanoma cells (containing MC1-R); endogenous in cells; host or cells: B-16 mouse melanoma cells
T6 sequence (Q01727 whole entry): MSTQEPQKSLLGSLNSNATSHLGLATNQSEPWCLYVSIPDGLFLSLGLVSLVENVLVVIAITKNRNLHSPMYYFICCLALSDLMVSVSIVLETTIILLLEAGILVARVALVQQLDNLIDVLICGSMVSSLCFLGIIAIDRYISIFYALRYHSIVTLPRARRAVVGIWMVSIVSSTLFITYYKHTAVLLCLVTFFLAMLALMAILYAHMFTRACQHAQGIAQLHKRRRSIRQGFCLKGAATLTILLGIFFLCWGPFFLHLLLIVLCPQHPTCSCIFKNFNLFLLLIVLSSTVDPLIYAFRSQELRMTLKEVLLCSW
Kind of assay: cAMP functional assay for agonist/antagonist status, MC1-R. The following applies: for pEC50: cAMP accumulation; for agonist/antagonist status as to MC1-R: cAMP assay; for efficacy relative to NDP-α-MSH, MC1-R: cAMP response ratio to NDP-α-MSH. The class given is cell-based. As to the method: Data analysis and EC50 values were determined using nonlinear regression analysis with Prism Graph-Pad software.
The agonist/antagonist status with respect to MC1-R, MC4-R and MC5-R of certain peptides of the invention was determined.

Assay [4] addresses T6, MC1-R (B-16 mouse melanoma cells). Put plainly: Competitive inhibition binding assay using [I125]-NDP-α-MSH, MC1-R. The note with it: radioligand [I125]-NDP-α-MSH, B-16 mouse melanoma membranes. As to the method: The assay mixture was incubated for 60 minutes at 37° C., then filtered and the membranes washed three times with ice cold phosphate buffered saline. The filter was dried and counted in a gamma counter for remaining radioactivity bound to the membranes. […] Each assay was conducted in triplicate.

pEC50, pKi: −log10 of the molar value. Where a SMILES comes first, the peptide text is derived from it. Bridges are numbered along the chain shown (N, C = ends). [ ]: non-standard residue; d: D form. 1Nal = N[C@@H](Cc1cccc2ccccc12)C(=O)O; Nle = CCCC[C@H](N)C(=O)O

T4 sequence (P32245 whole entry): as the sequence (P32245 whole entry) above
T1 sequence (P33032 whole entry): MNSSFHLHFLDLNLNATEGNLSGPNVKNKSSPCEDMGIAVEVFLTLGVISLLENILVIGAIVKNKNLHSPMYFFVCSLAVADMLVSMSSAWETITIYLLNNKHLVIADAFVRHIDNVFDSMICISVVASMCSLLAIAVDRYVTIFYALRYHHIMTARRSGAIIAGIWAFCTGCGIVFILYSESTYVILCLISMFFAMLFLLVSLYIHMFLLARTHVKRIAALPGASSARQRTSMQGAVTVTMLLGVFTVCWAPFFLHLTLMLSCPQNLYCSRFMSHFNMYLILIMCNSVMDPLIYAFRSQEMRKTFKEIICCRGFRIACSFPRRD

As to `CC(=O)N[C@H]1CC(=O)NCCCC[C@@H](C(=O)N(C)C)NC(=O)[C@H](Cc2c[nH]c3ccccc23)NC(=O)[C@H](CCCNC(=N)N)NC(=O)[C@@H](Cc2ccccc2)NC(=O)[C@H](Cc2c[nH]cn2)NC1=O` [Example 13, Ac-cyclo(-Asp-His-D-Phe-Arg-Trp-Lys)-N(CH3)2], at hMC5-R, the pKi was less than 6.00. Besides, on MC4-R [1], the pKi is 7.92. Besides, on MC3-R, the pKi was 6.81. The pKi at MC4-R [2] is 7.74. In addition, the “rats exhibiting at least one PE” value in the assay with male Sprague-Dawley rats is 100%. On hMC4-R (HEK-293 cells), the pEC50 is 8.30; the “agonist/antagonist status as to MC4-R” value is reported as “partial agonist (Peptides with a ratio from 0.1 to 0.7 were classified as partial agonists)”; the “efficacy relative to NDP-α-MSH, MC4-R” value is 0.6. For the same compound, at hMC3-R (HEK-293 cells), the pEC50 is 5.90; the “agonist/antagonist status as to MC3-R” value was “agonist (response ratio compared to NDP-α-MSH of 0.7 and above were classified as full agonists)”; the “efficacy relative to NDP-α-MSH, MC3-R” value is 1.3. Moreover, in assay [3], the pEC50 was 6.82; the “agonist/antagonist status as to MC1-R” value was “agonist (response ratio compared to NDP-α-MSH of 0.7 and above were classified as full agonists)”; the “efficacy relative to NDP-α-MSH, MC1-R” value came out at 0.7. In [4], the pKi was 8.70.

Turning to `CC(=O)N[C@H]1CC(=O)NCCCC[C@@H](C(=O)N(C)C)NC(=O)[C@H](Cc2cccc3ccccc23)NC(=O)[C@H](CCCNC(=N)N)NC(=O)[C@@H](Cc2ccccc2)NC(=O)[C@H](Cc2c[nH]cn2)NC1=O` [Example 17, Ac-cyclo(-Asp-His-D-Phe-Arg-Nal 1-Lys)-N(CH3)2] (Ac-DH[dF]R[1Nal]K-NMe2; lactam 1-6 (inferred)), at hMC5-R, the pKi is less than 5.00. Further, on MC4-R [1], the pKi is 7.04. Further, on MC3-R, the pKi was less than 5.00. Further, the “rats exhibiting at least one PE” value in the assay with male Sprague-Dawley rats stood at 100%. At hMC4-R (HEK-293 cells), the negative logarithm of the EC50 (pEC50) is 7.04; the “agonist/antagonist status as to MC4-R” value was “agonist (response ratio compared to NDP-α-MSH of 0.7 and above were classified as full agonists)”; the “efficacy relative to NDP-α-MSH, MC4-R” value is given as 0.93. Moreover, on hMC3-R (HEK-293 cells), the pEC50 was less than 6.00; the “agonist/antagonist status as to MC3-R” value is “partial agonist (Peptides with a ratio from 0.1 to 0.7 were classified as partial agonists)”; the “efficacy relative to NDP-α-MSH, MC3-R” value is recorded as 0.4. Also, in assay [3], the pEC50 was 5.63; the “agonist/antagonist status as to MC1-R” value is “agonist (response ratio compared to NDP-α-MSH of 0.7 and above were classified as full agonists)”; the “efficacy relative to NDP-α-MSH, MC1-R” value is listed as 1.0. This compound showed a pKi in [4] of 7.40.

`CCCC[C@H](NC(C)=O)C(=O)N[C@H]1CC(=O)NCCCC[C@@H](C(=O)NCC)NC(=O)[C@H](Cc2cccc3ccccc23)NC(=O)[C@H](CCCNC(=N)N)NC(=O)[C@@H](Cc2ccccc2)NC(=O)[C@H](Cc2c[nH]c3ccccc23)NC1=O` [Example 18, Ac-Nle-cyclo(-Asp-Trp-D-Phe-Arg-Nal 1-Lys)-NH—CH2—CH3] (Ac-[Nle]DW[dF]R[1Nal]K-NHEt; lactam 2-7 (inferred)) had a pKi on MC4-R [2] of 7.59. Further, on hMC4-R (HEK-293 cells), the “agonist/antagonist status as to MC4-R” value was “partial agonist (Peptides with a ratio from 0.1 to 0.7 were classified as partial agonists)” and the “efficacy relative to NDP-α-MSH, MC4-R” value was 0.6. Further, on hMC3-R (HEK-293 cells), the pEC50 is 5.74; the “agonist/antagonist status as to MC3-R” value is listed as “partial agonist (Peptides with a ratio from 0.1 to 0.7 were classified as partial agonists)”; the “efficacy relative to NDP-α-MSH, MC3-R” value was 0.2. Moreover, in assay [3], the pEC50 is 6.40; the “agonist/antagonist status as to MC1-R” value is reported as “partial agonist (Peptides with a ratio from 0.1 to 0.7 were classified as partial agonists)”; the “efficacy relative to NDP-α-MSH, MC1-R” value is given as 0.3. In assay [4], the pKi was 8.52.

The values above are taken from patent US8247530B2, “N-alkylated cyclic peptide melanocortin agonists” (Palatin Technologies, Inc., priority 2005, dated 2012).
